Measurements reported in patent publication US20110059102A1, “Therapeutic Method Targeting Midkine” (NATIONAL UNIVERSITY CORPORATION NAGOYA UNIVERSITY, priority 2009, published 2011).
Where a name gives a salt, the structure may show the parent alone.

How the values were obtained:
[1] = Body weight, blood urea nitrogen and serum creatinine after 5/6 nephrectomy, drug treatment model; assay type: in vivo; details: Mdk+/+ mice; for BUN (blood urea nitrogen) / Cre (serum creatinine): 2 weeks after nephrectomy, oral daily at indicated dose, mean ± SD; for Abnormal elevation of blood urea nitrogen and serum creatinine: 2 weeks after 5/6 nephrectomy
Protocol: Animals and experimental design. Mice deficient in Mdk were generated as described previously (Genes Cells. 3:811-822). After backcrossing of Mdk+/− mice for 14 generations with 129/Sv mice, Mdk+/− mice were mated with each other to generate Mdk^+/+ and Mdk^−/− mice, which were used in this study. Experiments were performed on 8 to 12-week-old female mice weighing 20-25 g that were housed under controlled environmental conditions and maintained with standard food and water. Animal care and experimental procedures were approved by the Animal Experimentation Committee of the Nagoya University Graduate School of Medicine and were conducted according to the Nagoya University Regulations for Experiments. Renal ablation was performed as described previously. Briefly, mice were anesthetized by diethyl ether. The flank region was shaved, and the animals were placed on a heating pad to maintain a constant body temperature (37° C.). Under anesthesia, right flank incisions were made, and the right kidney was removed. Seven days later, mice were anesthetized as above, and two-thirds of the mass of the left kidneys was ablated (Mdk^+/+: 2 weeks, n=13; 4 weeks, n=13; 8 weeks, n=8; Mdk^−/−: 2 weeks, n=10; 4 weeks, n=10; 8 weeks, n=4). After the renal ablation, the flanks were closed in 2 layers with 5-0 silk sutures. The animals received 100 ml/kg warm saline instilled into the peritoneal cavity during the procedure and were allowed to recover with free access to food and water. In the control mice, a sham operation was performed (Mdk^+/+, n=11; Mdk^−/−, n=8).
(§1) Drug treatment model. In the drug treatment studies, Mdk^+/+ mice were randomly assigned to receive one of the following 5 treatments after 5/6 nephrectomy and were orally treated daily starting from 24 hours after 5/6 nephrectomy: vasodilator (hydralazine hydrochloride; Novartis) at a dose of 10 mg/kg/d (group 1, n=3); ACE inhibitor (temocapril; Daiichi Sankyo Co.) at a dose of 3 mg/kg/d (group 2, n=3); angiotensin receptor blocker (olmesartan; Daiichi Sankyo Co.) at a dose of 3 mg/kg/d (group 3, n=3); antioxidative reagent (tempol; Alexis Biochemicals) at a dose of 3 mmol/l in drinking solution after 5/6 nephrectomy (group 4, n=6); and sham operation (group 5, n=6). Drug treatment was performed […]. In the present study, we determined the dosage according to previous reports (Hypertension. 13:582-588, J. Cardiovasc. Pharmacol. 40:533-542, Hypertension. 43:841-848). Blood pressure was measured by the tail-cuff method at 2 weeks, as described below under Blood pressure monitoring. Mice were sacrificed at 2 weeks after 5/6 nephrectomy, and blood and tissue samples were collected.
Sample collection. Mice were sacrificed at 2, 4, and 8 weeks after 5/6 nephrectomy. The remnant kidney, lung, brain, heart, and liver were removed rapidly, snap-frozen in liquid nitrogen, and stored at −80° C. until examinations were performed. Each tissue was processed for histology, protein extraction, and RNA extraction. Blood samples were collected into chilled tubes for measurement of renal function parameters and into chilled tubes containing EDTA for Ang II measurements. Serum and plasma were separated by centrifugation (500 g for 10 minutes) and stored at −80° C. until measurement were performed. Serum creatinine, blood urea nitrogen (Mdk^+/+: sham, n=6; 2 weeks, n=10; 4 weeks, n=9; 8 weeks, n=8; Mdk^−/−: sham, n=7; 2 weeks, n=7; 4 weeks, n=6; 8 weeks, n=4), and Ang II concentrations (Mdk^+/+: sham, n=6; 2 weeks, n=6; 4 weeks, n=8; Mdk^−/−: sham, n=6; 2 weeks, n=7; 4 weeks, n=5) were measured by Mitsubishi BCL.

[2] = tested on: Mdk+/+ mice after 5/6 nephrectomy; assay: Blood pressure by tail-cuff method, drug treatment model after 5/6 nephrectomy; assay type: in vivo; details: 2 weeks after 5/6 nephrectomy
Protocol: as §1
(§2) Blood pressure monitoring. Blood pressure was measured in restrained, conscious mice by the indirect tail-cuff technique under unstressed conditions (BP-98A; Softron) at 0, 2, 4, 6, and 8 weeks after 5/6 nephrectomy (J. Lab. Clin. Med. 78:957-962). Before measurement, the mice were warmed with a heating pad for 5 minutes. A total of 7-10 readings were taken for each mouse, at 1- to 2-minute intervals.

[3] = tested on: Mdk+/+ mice after 5/6 nephrectomy; assay: Kidney histology (PAS staining) after 5/6 nephrectomy, drug treatment model; assay type: in vivo; details: 2 weeks after 5/6 nephrectomy, PAS staining
Protocol: as §1
Histology and immunohistochemistry.

ACE = ACE expression in HMVEC-L by Western blotting; assay type: cell-based, human
Excerpt: Histology and immunohistochemistry. The removed kidneys and lungs were fixed in 10% buffered formalin, embedded in paraffin, and then cut into 4-10.1 μm sections. The sections were stained with H&E, PAS, and Masson's trichrome. Another tissue sample was embedded in OCT compound (Sakura Finetek) and frozen in liquid nitrogen for immunostaining. Sections were cut to a thickness of 3 μm with a cryostat and fixed in acetone. High-power fields were used to examine the sections for evidence of focal sclerosis (J. Hypertens. 13:1785-1790, J. Lab. Clin. Med. 115:165-173). Glomerular sclerosis was assessed by semiquantitative score (grades 0 to +4) using the method of Raij et al. (Kidney Int. 26:137-143): grade 0, no sclerosis of glomeruli; grade 1, sclerosis of up to 25% of glomerulus; grade 2, sclerosis of 25%-50% of glomerulus; grade 3, sclerosis of 50%-75% of glomerulus; grade 4, sclerosis of 75%-100% of glomerulus. At least 50 glomeruli were evaluated under ×400 magnification and results averaged for each kidney (Mdk^+/+: 2 weeks, n=5; 4 weeks, n=4; 8 weeks, n=4; Mdk^−/−: 2 weeks, n=4; 4 weeks, n=3; 8 weeks, n=3). Immunostaining for ACE and MK was performed on buffered formalin-fixed tissues. Sections were deparaffinized, rehydrated, incubated in 3% hydrogen peroxide in methanol to block endogenous peroxidase, and washed in 10% normal goat serum (Dako) in PBS to block nonspecific binding. Subsequently, sections were incubated with mouse anti-ACE monoclonal antibody (dilution, 1:400; Chemicon International, Millipore) or anti-MK monoclonal antibody (dilution, 1:100) overnight at 4° C. as described previously (22), followed by a conjugate of polyclonal goat anti-mouse IgG antibody and HRP-labeled polymer (Histofine Simple Stain; Nichirei) for 1 hour at room temperature as a secondary antibody. The staining was visualized with 3-3′ diaminobenzidine (Nichirei) to produce a brown color. The sections were covered with 90% glycerol containing p-phenylenediamine and were examined by electron microscopy (H-7100; Hitachi). For double immunofluorescence staining of MK and thrombomodulin as a marker of the vascular endothelium, the cryosections of lungs were first incubated with chicken anti-human MK (dilution, 1:200) and then with rabbit anti-rat thrombomodulin (dilution, 1:1,000) (J. Immunol. 150:5633-5646), followed by incubation with FITC-labeled rabbit anti-chicken IgG (dilution, 1:160) and rhodamine-labeled goat anti-rabbit IgG (dilution, 1:320) as secondary antibodies. […] The lung and kidney section from each mouse was viewed under ×400 magnification, and then macrophages or neutrophils were counted from 10 fields and averaged. […]

HMVEC-L = assay: Ang II concentration in HMVEC-L (conversion from Ang I to Ang II); assay type: cell-based, human; details: HMVEC-L treated 36 hours with MK 100 ng/ml plus heparin 20 μg/ml or heparin alone, then Ang I added
Protocol: Ang II concentration in HMVEC-L. After reaching confluence, HMVEC-L were washed with PBS and cultured for 24 hours in essential basal medium containing 0.5% FBS. These cells were exposed to 100 ng/ml rh-MK plus 20 μg/ml heparin or 20 μg/ml heparin alone in essential basal medium containing 0.5% FBS for 36 hours. After stimulation, HMVEC-L were washed with PBS and exposed to 500 pM Ang I (Sigma-Aldrich) for 10 and 25 minutes. Supernatants were collected into chilled tubes, and then the Ang II concentration was measured as previously described (Hypertension. 39:129-134).

[4] = tested on: Mdk-/- mice after 5/6 nephrectomy; assay: rh-MK and -PTN treatment model (osmotic pump), blood pressure by tail-cuff; assay type: in vivo; details: 1.6 mg/ml, 100 μl by osmotic pump over 14 days
Protocol: rh-MK and -PTN treatment model. In the pump study, MK protein in saline (1.6 mg/ml) (n=5), PTN in saline (1.6 mg/ml; n=5), or saline alone (n=5) was infused using an osmotic pump (ALZA Corp.) into Mdk^−/− mice after 5/6 nephrectomy. The pumps continuously infused a total of 100 μl over 14 days. The pumps were implanted under the dorsal skin the next day after 5/6 nephrectomy. Blood pressure was measured by the indirect tail-cuff technique at 0 and 2 weeks after 5/6 nephrectomy. Mice were sacrificed at 2 weeks after 5/6 nephrectomy, and blood and tissue samples were collected.
as §2

Molecule: CCCc1nc(C(C)(C)O)c(C(=O)O)n1Cc1ccc(-c2ccccc2-c2nnn[nH]2)cc1 [Olmesartan, olmesartan]
- BUN (blood urea nitrogen) [1]: 36.0 ± 1.0^B mg/dl
- Cre (serum creatinine) [1]: 0.21 ± 0.01^A mg/dl

Molecule: CCOC(=O)[C@H](CCc1ccccc1)N[C@H]1CS[C@H](c2cccs2)CN(CC(=O)O)C1=O [Temocapril, temocapril]
- Blood pressure / hypertension [2]: reduced
- BUN (blood urea nitrogen) [1]: 30.3 ± 2.9^A mg/dl
- Cre (serum creatinine) [1]: 0.21 ± 0.04^A mg/dl
- Abnormal elevation of blood urea nitrogen and serum creatinine [1]: ameliorated
- Renal tubulointerstitial damage [3]: reduced

Molecule: CN(C)CCCn1cc(C2=C(c3c[nH]c4ccccc34)C(=O)NC2=O)c2ccccc21 [BIS, bisindolylmaleimide I]
- MK-mediated increase in ACE expression (ACE; BIS 5 μM added 1 hour before 36-hour treatment with rh-MK plus heparin): blocked
- PMA-induced increase in ACE expression (ACE; BIS added 1 hour before PMA): blocked

Molecule: heparin
- Conversion of Ang I to Ang II (HMVEC-L): did not show such a conversion

Molecule: CCCCCCCCCCCCCC(=O)O[C@@H]1[C@@H](C)[C@@]2(O)[C@@H](C=C(CO)C[C@]3(O)C(=O)C(C)=C[C@@H]23)[C@@H]2C(C)(C)[C@]12OC(C)=O [PMA]
- ACE expression in HMVEC-L (ACE; PMA 50 ng/ml): induced

Molecule: NNc1nncc2ccccc12 [Hydralazine, hydralazine hydrochloride]
- Blood pressure / hypertension [2]: ameliorated hypertension
- BUN (blood urea nitrogen) [1]: 63.3 ± 7.6 mg/dL
- Cre (serum creatinine) [1]: 0.53 ± 0.12 mg/dL
- Abnormal elevation of blood urea nitrogen and serum creatinine [1]: not
- Renal tubulointerstitial damage [3]: not

B1: PTN: recombinant human pleiotrophin, shows 50% homology with MK (protein, UniProt P21246 33-168, looked up)
Pleiotrophin: GKKEKPEKKVKKSDCGEWQWSVCVPTSGDCGLGTREGTRTGAECKQTMKTQRCKIPCNWKKQFGAECKYQFQAWGECDLNTALKTRTGSLKRALHNAECQKTVTISKPCGKLTKPKPQAESKKKKKEGKKQEKMLD
- Hypertension (SBP) [4]: neither induced hypertension
